Here are results for three compounds from patent publication US11279733B2, “Peptide antibiotics” (priority 2017, dated 2022).

The structures appear in SMILES notation. In brackets after ≈: the same amount, converted by molar mass. Positions of bridges follow the written chain, without caps; N, C: chain ends. Non-standard residues stand in square brackets, D forms with d. Residues, ends and D or L forms follow the SMILES beside them. *: point of attachment. Benzoyl(4-OPh) = O=C(c1ccc(Oc2ccccc2)cc1)*; X4 = CCCCCOc1ccc(C(=O)*)cc1; dDab = NCC[C@@H](N)C(=O)O; X8 = CC(C)CCCC(C)CC(=O)*; Dab = NCC[C@H](N)C(=O)O Some results are limits rather than exact numbers.

In one assay the test system is A. baumannii ATCC 19606. Particulars: ATCC 19606. Here is the method: (§1) Bacteria were either obtained from American Type Culture Collection (ATCC; Manassas, Va., USA) or independent academic clinical isolate collections, as listed in Table 18 below. Bacteria were cultured in Nutrient broth (NB; Bacto Laboratories, catalogue No. 234000) or Mueller Hinton broth (MHB; Bacto Laboratories, catalogue No. 211443) at 37° C. overnight with shaking (˜180 RPM). A sample of each culture was then diluted 50-fold in fresh MHB and incubated at 37° C. for 2-3 h with shaking (˜180 RPM). Compound stock solutions were prepared as 0.64 mg/mL or 2.56 mg/mL in water. The compounds, at twice the final desired concentration, were serially diluted 2-fold across the wells of 96-well plates (Polystyrene, Corning, catalogue No. 3370). Mid-log phase bacterial cultures (after 2-3 h incubation) were diluted to a final concentration of 1×10^6 colony forming units (CFU)/mL, and 50 μL was added to each well giving a final cell density of 5×10^5 and a compound concentration range of 32 μg/mL to 0.015 μg/mL (128-0.06 μg/mL against P. aeruginosa PA9704).

In another assay the test system is A. baumannii GN_093 PmxR. Particulars: GN 093 PmxR. The protocol: as §1
Another assay relates to E. coli ATCC 25922. The following applies: ATCC 25922. Here is the method:
as §1

In the next assay the test system is K. pneumoniae ATCC 13883. The following applies: ATCC 13883. Here is the method:
as §1

The test system of assay [1] is K. pneumoniae ATCC 700603, MDR. The following applies: ATCC 700603. The protocol: as §1
In assay [2] the test system is K. pneumoniae ATCC BAA-2146, NDM-1 pos. The following applies: ATCC BAA-2146. Here is the method:
as §1

Assay [3] has as its system K. pneumoniae GN_102 PmxR. Particulars: GN 102 PmxR. The protocol: as §1
Assay [4] concerns K. pneumoniae GN_106, PmxR. Particulars: GN 106, PmxR. Here is the method: as §1
A further assay concerns P. aeruginosa ATCC 27853. Particulars: ATCC 27853. The protocol: as §1
In assay [5] the test system is P. aeruginosa GN_043, PmxR. Here is the method:
as §1

Assay [6] has as its system P. aeruginosa GN_105, PmxR. The following applies: GN 105, PmxR. The protocol: as §1
The test system of assay [7] is S. aureus ATCC 25923, MSSA. Particulars: ATCC 25923. Here is the method: as §1

As for `CC(C)CCCC(C)CC(=O)N[C@H](CCN)C(=O)N[C@H]1CCNC(=O)[C@H](CC(C)C)NC(=O)[C@H](CCN)NC(=O)[C@H](CCN)NC(=O)[C@H](CC(C)C)NC(=O)[C@@H](Cc2ccccc2)NC(=O)[C@H](CCN)NC1=O` (stereo partly drawn) [compound 6523, 3,7-dimethyloctanoic acid-D-Dab-cyc[L-Dab-L-Dab-D-Phe-L-Leu-L-Dab-L-Dab-L-Leu]] (X8-[dDab][Dab][Dab][dF]L[Dab][Dab]L; lactam 2-C), in the assay with A. baumannii ATCC 19606, the “MIC A. baumannii ATCC 19606” value was >32 µg/mL. The “MIC A. baumannii GN_093 PmxR” value against A. baumannii GN_093 PmxR was 16 µg/mL (≈ 15.6 µM). The “MIC E. coli ATCC 25922” value in the assay on E. coli ATCC 25922 is 1 µg/mL (≈ 0.972 µM). Moreover, the “MIC K. pneumoniae ATCC 13883” value against K. pneumoniae ATCC 13883 worked out at 4 µg/mL (≈ 3.89 µM). Moreover, the “MIC K. pneumoniae ATCC 700603, MDR” value in assay [1] was 8 µg/mL (≈ 7.78 µM). For the same compound, in [2], the “MIC K. pneumoniae ATCC BAA-2146, NDM-1 pos” value stood at 8 µg/mL (≈ 7.78 µM). Further, the “MIC K. pneumoniae GN_102 PmxR” value in assay [3] was 16 µg/mL (≈ 15.6 µM). The “MIC K. pneumoniae GN_106, PmxR” value in [4] was 32 µg/mL (≈ 31.1 µM). Moreover, in the assay with P. aeruginosa ATCC 27853, the “MIC P. aeruginosa ATCC 27853” value is 2 µg/mL (≈ 1.94 µM). In [5], the “MIC P. aeruginosa GN_043, PmxR” value stood at 2 µg/mL (≈ 1.94 µM). Besides, the “MIC P. aeruginosa GN_105, PmxR” value in assay [6] turned out to be 2 µg/mL (≈ 1.94 µM). The “MIC S. aureus ATCC 25923, MSSA” value in assay [7] was 32 µg/mL (≈ 31.1 µM).

As to `CC(C)C[C@@H]1NC(=O)[C@H](CCN)NC(=O)[C@H](CCN)NC(=O)[C@H](CC(C)C)NC(=O)[C@@H](Cc2ccccc2)NC(=O)[C@H](CCN)NC(=O)[C@@H](NC(=O)[C@@H](CCN)NC(=O)c2ccc(Oc3ccccc3)cc2)CCNC1=O` [compound 6527, Ph-4-OPhCO-D-Dab-cyc[L-Dab-L-Dab-D-Phe-L-Leu-L-Dab-L-Dab-L-Leu]] ({Benzoyl(4-OPh)}-[dDab][Dab][Dab][dF]L[Dab][Dab]L; lactam 2-C), the “MIC A. baumannii ATCC 19606” value against A. baumannii ATCC 19606 is >32 µg/mL. Also, in the assay with A. baumannii GN_093 PmxR, the “MIC A. baumannii GN_093 PmxR” value is >32 µg/mL. Also, in the assay on E. coli ATCC 25922, the “MIC E. coli ATCC 25922” value was 2 µg/mL (≈ 1.87 µM). Further, in the assay with K. pneumoniae ATCC 13883, the “MIC K. pneumoniae ATCC 13883” value stood at 16 µg/mL (≈ 14.9 µM). In assay [1], the “MIC K. pneumoniae ATCC 700603, MDR” value was determined as 16 µg/mL (≈ 14.9 µM). Moreover, in [2], the “MIC K. pneumoniae ATCC BAA-2146, NDM-1 pos” value is 16 µg/mL (≈ 14.9 µM). Further, the “MIC K. pneumoniae GN_102 PmxR” value in assay [3] came to 32 µg/mL (≈ 29.9 µM). The “MIC K. pneumoniae GN_106, PmxR” value in [4] is >32 µg/mL. Also, in the assay on P. aeruginosa ATCC 27853, the “MIC P. aeruginosa ATCC 27853” value came to 2 µg/mL (≈ 1.87 µM). Also, the “MIC P. aeruginosa GN_043, PmxR” value in assay [5] was found to be 1 µg/mL (≈ 0.934 µM). Besides, the “MIC P. aeruginosa GN_105, PmxR” value in [6] came out at 4 µg/mL (≈ 3.74 µM). In addition, the “MIC S. aureus ATCC 25923, MSSA” value in [7] is >32 µg/mL.

As for `CCCCCOc1ccc(C(=O)N[C@H](CCN)C(=O)N[C@H]2CCNC(=O)[C@H](CC(C)C)NC(=O)[C@H](CCN)NC(=O)[C@H](CCN)NC(=O)[C@H](CC(C)C)NC(=O)[C@@H](Cc3ccccc3)NC(=O)[C@H](CCN)NC2=O)cc1` [compound 6528, 4-(pentyloxy)benzoic acid-D-Dab-cyc[L-Dab-L-Dab-D-Phe-L-Leu-L-Dab-L-Dab-L-Leu]] (X4-[dDab][Dab][Dab][dF]L[Dab][Dab]L; lactam 2-C), in the assay on A. baumannii ATCC 19606, the “MIC A. baumannii ATCC 19606” value was >32 µg/mL. In addition, the “MIC A. baumannii GN_093 PmxR” value against A. baumannii GN_093 PmxR was found to be 32 µg/mL (≈ 30.1 µM). Besides, the “MIC E. coli ATCC 25922” value in the assay with E. coli ATCC 25922 is 2 µg/mL (≈ 1.88 µM). The “MIC K. pneumoniae ATCC 13883” value with K. pneumoniae ATCC 13883 is 8 µg/mL (≈ 7.52 µM). In addition, the “MIC K. pneumoniae ATCC 700603, MDR” value in assay [1] came to 16 µg/mL (≈ 15 µM). Also, the “MIC K. pneumoniae ATCC BAA-2146, NDM-1 pos” value in assay [2] was found to be 8 µg/mL (≈ 7.52 µM). The “MIC K. pneumoniae GN_102 PmxR” value in [3] is >32 µg/mL. The “MIC K. pneumoniae GN_106, PmxR” value in assay [4] came to 32 µg/mL (≈ 30.1 µM). Besides, in the assay with P. aeruginosa ATCC 27853, the “MIC P. aeruginosa ATCC 27853” value came out at 1 µg/mL (≈ 0.94 µM). Also, in assay [5], the “MIC P. aeruginosa GN_043, PmxR” value amounted to 1 µg/mL (≈ 0.94 µM). In addition, in assay [6], the “MIC P. aeruginosa GN_105, PmxR” value came to 4 µg/mL (≈ 3.76 µM). The “MIC S. aureus ATCC 25923, MSSA” value in assay [7] is 32 µg/mL (≈ 30.1 µM).
